Consider 20 compounds from US5597922A, “Glycine receptor antagonist pharmacophore” (priority 1994, dated 1997).

Where two headings read alike, the source gives them in different places.

The conditions of data set [1]: in words; cited from earlier work.
The target of another data set is T1, glycine/NMDA receptor (Rattus norvegicus, UniProt P35439).
T1 construct: rat brain membrane homogenates which are enriched in NMDA receptors; tissue Pel-Freez, Rogers, Ark; (frozen rat brains); host or cells: rat brain membrane homogenates
Description: inhibition of 1 μM glycine-stimulated [3H]-MK801 binding in rat brain membrane homogenates (glycine/NMDA receptor antagonist activity). The following applies: for potency relative to DCK (% of DCK): relative to 5,7-dichlorokynurenic acid (DCK); for activity as antagonist for the glycine/NMDA receptor (in words): in vitro binding assay; for Ki: calculated from IC50 by Cheng and Prusoff equation. As for the experimental part: This assay takes advantage of the fact that the binding of [^3 H]-MK801 to the PCP receptor inside the pore of the NMDA channel is dependent on the presence of both glutamate and glycine. In the absence of glycine but in the presence of glutamate, [^3 H]-MK801 cannot bind effectively to the PCP receptor, because the NMDA channel remains closed and access of [^3 H]-MK801 to the PCP receptor inside the closed channel pore is severely restricted.
The assay is conducted using rat brain membrane homogenates which are enriched in NMDA receptors. The membranes are prepared as follows. Frozen rat brains (obtained from Pel-Freez, Rogers, Ark.) are homogenized in 15 volumes (w/v) of ice cold 0.32M sucrose. The homogenate is spun at 1,000×g for ten minutes. The supernatant is collected and spun for 20 minutes at 44,000×g. The pellet is suspended in 15 volumes of water (relative to original brain weight). The homogenate is again spun at 44,000×g for twenty minutes. The pellet is resuspended in 5 volumes of water and the suspension is freeze-thawed 2 times. After the final thaw cycle, the suspension is brought to 15 volumes with water and spun at 44,000×g for twenty minutes. The pellet is resuspended in 5 volumes of ice-cold […] HEPES, and is titrated to pH 7.4 with KOH containing 0.04% Triton X-100. Membranes are incubated with the Triton/HEPES buffer at 37° C. for 15 minutes. The volume is then brought to 15 with ice-cold 10 mM HEPES, pH 7.4, and spun/washed three times with spins of 44,000×g between washes. The final pellet is suspended in three volumes of 50 mM HEPES, pH 7.4 and the protein concentration is determined with a standard dye-binding protein assay (Bio-Rad, Richmond, Calif.). The suspension is stored at -80° C. until used. Only HPLC grade water is used for all buffers and suspensions/washings. The extensive washings are necessary to remove as much endogenous glycine from the membrane preparation as possible.
Nonspecific binding is defined as the […] presence of PCP (final concentration: 100 μM). To determine the effect of 1 μM glycine on the binding of [^3 H]-MK801, bound radioactivity in the presence of 10 μM glutamate alone (final concentration) is subtracted from the bound radioactivity in the presence of both 10 μM glutamate and 1 μM glycine (final concentration). A 500 nM concentration (final) of 5,7-dichlorokynurenic (DCK) acid is added to all assay tubes. This concentration of the glycine antagonist DCK "buffers" most of the residual endogenous glycine that is not removed by the extensive washing steps that are carried out during the membrane preparation procedure.
The assays are incubated for 120 minutes at room temperature after which time the membrane-bound radioactivity is isolated from the free radioactivity by vacuum filtration through Whatman glass fiber filters that had been pretreated with 0.3% polyethyleneimine. Filtration is accomplished using a Brandel 48 well cell harvester. Filtered membranes are washed three times with 3 mL each of ice cold buffer. Filters are transferred to scintillation vials and 5 mL of scintillation cocktail is added. The vials are shaken overnight and the radioactivity is counted by liquid scintillation spectroscopy. The assays are done in triplicate and all experiments are conducted at least three times.

The test system of data set [2] is glycine binding site of the NMDA receptor. To be noted: Fletcher and Lodge (1988); cited from earlier work.
The next data set addresses PCP receptor. The following applies: Wong, E. H. F., et al. (1986); cited from earlier work.
Setting [3] is: 1 μM glycine-stimulated [3H]-MK801 binding, rat brain membranes, unit μm [sic], read-out: IC50.
The mark [4] stands for this setting: 1 μM glycine-stimulated [3H]-MK801 binding, rat brain membranes, read-out: IC50.

As for `O=C(O)c1cc(O)c2ccc(Cl)cc2n1` [7-Cl-kynurenic acid], the blood/brain barrier penetration result in data set [1] is “cannot penetrate the blood/brain barrier”.
One may read the IC50 as the point on the concentration scale where inhibition reaches its midpoint. On to `O=c1[nH]c2ccccc2oc1=O` [Compound 2, 4,1-Benzoxazine;2,3-dione], for which, on glycine/NMDA receptor (setting [3]), the IC50 was determined as 167 µM. The “potency relative to DCK (% of DCK)” value at glycine/NMDA receptor is given as 1.5%.
For the compound `COc1cc2ccccc2[nH]c1=O` [Compound 5, 3-Methoxy-2-quinolone], the “activity as antagonist for the glycine/NMDA receptor (in words)” value on glycine/NMDA receptor was “inactive”.
On to `Oc1nc2ccccc2c(O)c1O` [Compound 11, 2,3,4-Trihydroxyquinoline], for which the IC50 on glycine/NMDA receptor (setting [4]) was 60 µM. At glycine/NMDA receptor, the “potency relative to DCK (% of DCK)” value was determined as 4%.
Take `O=C1Nc2ccccc2C(=O)C1=O` [Compound 12, Quinoline-2,3,4-trione]: the IC50 at glycine/NMDA receptor (setting [4]) was 50 µM. At glycine/NMDA receptor, the “potency relative to DCK (% of DCK)” value was 5%.
Take `O=C1Nc2ccccc2C1=O` [Compound 13, Isatin]: the “activity as antagonist for the glycine/NMDA receptor (in words)” value at glycine/NMDA receptor was “not to be active”.
As to `O=C1Nc2cc(Cl)cc(Cl)c2C1=O` [Compound 13d, 4,6-Dichloroisatin], at glycine/NMDA receptor, the “activity as antagonist for the glycine/NMDA receptor (in words)” value is given as “not to be active”.
As to `O=C1Nc2cc(Cl)c([N+](=O)[O-])c(Cl)c2C1=O` [Compound 13e, 4,6-Dichloro-5(7)-nitroisatin], the half-inhibitory concentration (IC50) on glycine/NMDA receptor (setting [3]) is 96.5 µM. The “potency relative to DCK (% of DCK)” value at glycine/NMDA receptor is given as 3%.
Regarding `O=c1[nH]c2ccccc2c(=O)o1` [Compound 14a, Isatoic anhydride], on glycine/NMDA receptor, the IC50 was found to be 231 µM and the “potency relative to DCK (% of DCK)” value is listed as 1.1%.
With `O=c1[nH]c2cc(Cl)c([N+](=O)[O-])c(Cl)c2c(=O)o1` [Compound 14d, 5,7-Dichloro-6(8)-nitroisatoic anhydride], at glycine/NMDA receptor, the “potency relative to DCK (% of DCK)” value is reported as 2.7%.
On to `O=C(O)c1cc(=O)c2ccccc2o1` [Compound 19], for which the “activity as antagonist for the glycine/NMDA receptor (in words)” value on glycine/NMDA receptor is “only partially active”.
One may read the Ki as a dissociation constant, usually derived from enzyme kinetics or from competition with a known ligand. On to `O=C1Nc2cc(Cl)c(Cl)cc2NC1[N+](=O)[O-]` (stereo not shown) [Compound 33], for which, on glycine/NMDA receptor (unit μm [sic]), the Ki is 0.22 µM.
As to `O=c1[nH]c2cc(Cl)c(Cl)cc2[nH]c1=NO` [Compound 37, 6,7-Dichloro-3-(hydroxyimino)-1,4-dihydroquinoxalin-2-one], at glycine/NMDA receptor, the inhibition constant Ki was 0.3 µM.
Turning to `O=C1C=CC(=O)Nc2ccccc2N1` [Compound 43, 1H-6H-1,6-Benzodiazocine-2,5-dione], the “activity as antagonist for the glycine/NMDA receptor (in words)” value at glycine/NMDA receptor was “inactive”.
With `O=C1CNC(=O)c2ccccc2N1` [Compound 73a, 2,3,5-trihydro-1H,4H-1,4-Benzodiazepine-2,5-dione], the IC50 at glycine/NMDA receptor (setting [3]) is 300 µM. The “potency relative to DCK (% of DCK)” value on glycine/NMDA receptor is reported as 1.0%.
Regarding `O=[N+]([O-])c1c(Br)c(Br)cc2nc(O)[nH]c12` [Example 50, 4-Nitro-5,6-dibromo-2-hydroxybenzimidazole], the “Potency relative to DCK (in words)” value at glycine/NMDA receptor (relative to DCK) is “inactive”.
For the compound `NC1CCN(O)C1=O` (stereo not shown) [HA-966], in data set [2], the “affinity for the glycine binding site (in words)” value is “micromolar affinity” and the “type of activity at the glycine binding site (in words)” value was “partial agonist”. Further, the blood/brain barrier penetration result in data set [1] was “sufficiently penetrates the blood/brain barrier”.
One may read the Kd as the equilibrium constant for the complex coming apart. Consider `C[C@]12N[C@H](Cc3ccccc31)c1ccccc12` [MK-801], for which the Kd on PCP receptor is roughly 0.003 µM.
As to `O=c1[nH]c2ccccc2[nH]c1=O` [QX, 1,4-dihydroquinoxaline-2,3-dione, reference compound], the “potency relative to DCK (% of DCK)” value on glycine/NMDA receptor worked out at 2%.
Take `O=C(O)c1cc2ccccc2[nH]1` [indole-2-carboxylic acid]: the blood/brain barrier penetration entry in data set [1] is “cannot penetrate the blood/brain barrier”.
